Reference: PubChem BioAssay AID488803 (Sanford-Burnham Center for Chemical Genomics, 2010)
The source made the active and inactive calls.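 How the source made its calls: active means mean IC50 below 10 µM; inactive means the rest.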

Molecular target: Apelin receptor (Homo sapiens) (UniProt P35414)
Assay: apelin receptor inhibitor analogs – cell-based, luminescence, set 2, SAR follow-up (AID 488803)
Details: CHO-K1 APJ PathHunter beta-arrestin, antagonist

Chain of Apelin receptor (Homo sapiens) (P35414 whole entry, looked up): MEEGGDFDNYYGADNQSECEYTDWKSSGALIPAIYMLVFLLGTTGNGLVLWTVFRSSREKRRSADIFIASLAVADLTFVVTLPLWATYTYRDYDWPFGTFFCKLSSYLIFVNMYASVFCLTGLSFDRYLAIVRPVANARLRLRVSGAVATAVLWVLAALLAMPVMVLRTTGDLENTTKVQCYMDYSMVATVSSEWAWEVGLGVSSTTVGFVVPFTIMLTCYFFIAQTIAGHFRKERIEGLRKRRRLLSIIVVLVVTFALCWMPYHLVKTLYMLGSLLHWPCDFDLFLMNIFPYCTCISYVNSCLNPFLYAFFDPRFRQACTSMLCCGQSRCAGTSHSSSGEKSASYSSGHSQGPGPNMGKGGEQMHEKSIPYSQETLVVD

IC50 | SMILES
> 79 µM (inactive) | O=C(Oc1coc(CSc2ncccn2)cc1=O)c1ccc(S(=O)(=O)N2CCCC2)cc1
> 79 µM (inactive) | O=C(Oc1coc(CSc2ncccn2)cc1=O)c1cc(Cl)ccc1[N+](=O)[O-]
> 79 µM (inactive) | COc1cc(C(=O)Oc2coc(CSc3ncccn3)cc2=O)c([N+](=O)[O-])cc1OC
> 79 µM (inactive) | Cc1cccc(C(=O)Oc2coc(CSc3nccc(C)n3)cc2=O)c1
inactive | Cc1ccnc(SCc2cc(=O)c(OC(=O)c3ccccc3Cl)co2)n1
> 79 µM (inactive) | Cc1ccnc(SCc2cc(=O)c(OC(=O)c3cccs3)co2)n1
> 79 µM (inactive) | Cc1cc(C)nc(SCc2cc(=O)c(O)co2)n1
> 79 µM (inactive) | Cc1ccc(C(=O)Oc2coc(CSc3ncccn3)cc2=O)cc1C
4.7 µM | Cc1ccnc(SCc2cc(=O)c(OC(=O)c3ccc(C)c([N+](=O)[O-])c3)co2)n1
6.59 µM | N#Cc1ccc(C(=O)Oc2coc(CSc3ncccn3)cc2=O)cc1
inactive | Cc1ccnc(SCc2cc(=O)c(OC(=O)c3cc([N+](=O)[O-])ccc3Cl)co2)n1
> 79 µM (inactive) | CC(C)Oc1ccc(C(=O)Oc2coc(CSc3ncccn3)cc2=O)cc1
> 79 µM (inactive) | O=C(Oc1coc(CSc2ncccn2)cc1=O)c1ccccc1
> 79 µM (inactive) | C=CCSC1=NC2(CC(c3ccccc3)c3c(C)cc(O)cc3O2)CC(C)(C)N1 (configuration not stated)
> 79 µM (inactive) | CN(C)S(=O)(=O)c1ccc(C(=O)Oc2coc(CSc3ncccn3)cc2=O)cc1
inactive | Cc1cc(C)nc(SCc2cc(=O)c(OC(=O)c3cc([N+](=O)[O-])ccc3Cl)co2)n1
> 79 µM (inactive) | COc1cccc(C(=O)Oc2coc(CSc3nccc(C)n3)cc2=O)c1
inactive | Cc1cccc(C2CC3(CC(C)(C)NC(=S)N3)Oc3cc(O)c(Cl)cc32)c1 (configuration not stated)
inactive | O=C(Oc1coc(CSc2ncccn2)cc1=O)c1cccc([N+](=O)[O-])c1
inactive | COc1ccc(C2CC3(CC(C)(C)NC(=S)N3)Oc3cc(OC(C)=O)cc(C)c32)cc1 (configuration not stated)
> 79 µM (inactive) | COc1ccccc1NCC(O)c1ccc(Cl)cc1 (configuration not stated)
> 79 µM (inactive) | CSC1=NC2(CC(c3ccccc3)c3cc(Cl)c(O)cc3O2)CC(C)(C)N1 (configuration not stated)
inactive | COc1ccc(C2CC3(CC(C)(C)NC(=S)N3)Oc3cc(O)cc(C)c32)cc1 (configuration not stated)
> 79 µM (inactive) | O=c1cc(CSc2ncccn2)occ1O
4.32 µM | Cc1ccnc(SCc2cc(=O)c(OC(=O)c3ccc([N+](=O)[O-])cc3)co2)n1
> 79 µM (inactive) | Cc1ccc(C(=O)Oc2coc(CSc3nccc(C)n3)cc2=O)cc1

IC50 | SMILES
> 79 µM (inactive) | CC1(C)CC2(CC(c3ccc(F)cc3)c3ccc(O)cc3O2)NC(=S)N1 (configuration not stated)
> 79 µM (inactive) | Cc1ccnc(SCc2cc(=O)c(OC(=O)c3ccc(OC(F)(F)F)cc3)co2)n1
6.88 µM | CC1(C)CC2(CC(c3ccccc3Cl)c3ccc(O)cc3O2)NC(=S)N1 (configuration not stated)
5.45 µM | Cc1cc(C)nc(SCc2cc(=O)c(OC(=O)c3ccc(Cl)c([N+](=O)[O-])c3)co2)n1
> 79 µM (inactive) | C=CCOc1ccc(CSc2nccc(C)n2)cc1
> 79 µM (inactive) | COc1ccc(NC2C(=O)Nc3ccccc32)cc1 (configuration not stated)
> 79 µM (inactive) | Cc1cc(C)nc(SCc2cc(=O)c(OC(=O)c3ccc(S(=O)(=O)N(C)C)cc3)co2)n1
9.61 µM | O=C(Oc1coc(CSc2ccccc2)cc1=O)c1ccc(Cl)c([N+](=O)[O-])c1
> 79 µM (inactive) | Cc1ccnc(SCc2cc(=O)c(OC(=O)c3ccco3)co2)n1
> 79 µM (inactive) | O=C(Oc1coc(CSc2ncccn2)cc1=O)c1ccc(S(=O)(=O)N2CCOCC2)cc1
> 79 µM (inactive) | COc1ccc(C(=O)Oc2coc(CSc3nccc(C)n3)cc2=O)cc1
inactive | O=C(Oc1coc(CSc2ncccn2)cc1=O)c1cc([N+](=O)[O-])ccc1Cl
inactive | COc1ccccc1NC(=O)CN1C(=O)C(=O)c2ccccc21
inactive | Cc1ccnc(SCc2cc(=O)c(OC(=O)c3cccc([N+](=O)[O-])c3)co2)n1
7.25 µM | Cc1ccc(C(=O)Oc2coc(CSc3ncccn3)cc2=O)cc1[N+](=O)[O-]
> 79 µM (inactive) | Cc1ccc(C(=O)Oc2coc(CSc3ncccn3)cc2=O)cc1
> 79 µM (inactive) | Cc1cc(C)nc(SCc2ccc(OC(=O)c3ccccc3)c(Cl)c2)n1
inactive | Cc1ccccc1C1CC2(CC(C)(C)NC(=S)N2)Oc2cc(O)c(Cl)cc21 (configuration not stated)
inactive | Cc1cc(C)nc(SCc2cc(=O)c(OC(=O)c3ccc(C)c([N+](=O)[O-])c3)co2)n1
8.51 µM | Cc1ccnc(SCc2cc(=O)c(OC(=O)c3ccc(C#N)cc3)co2)n1
> 79 µM (inactive) | O=c1cc(CSc2ccccc2)occ1O
inactive | O=C(Oc1coc(CSc2ncccn2)cc1=O)c1ccc(Cl)cc1
> 79 µM (inactive) | Cc1cc(C)nc(SCc2cc(=O)c(OC(=O)c3cccc([N+](=O)[O-])c3C)co2)n1
3.21 µM | Cc1ccnc(S(=O)(=O)Cc2cc(=O)c(OC(=O)c3ccc(Cl)c([N+](=O)[O-])c3)co2)n1
> 79 µM (inactive) | COc1ccc(C(=O)Oc2coc(CSc3ncccn3)cc2=O)cc1
> 79 µM (inactive) | CCCCOc1ccc(C(=O)Oc2coc(CSc3ncccn3)cc2=O)cc1

IC50 | SMILES
> 79 µM (inactive) | O=C(Oc1coc(CSc2ncccn2)cc1=O)c1ccc(-c2ccccc2)cc1
> 79 µM (inactive) | Cc1cc(C)nc(SCc2ccc(O)c(Cl)c2)n1
> 79 µM (inactive) | Cc1ccnc(SCc2cccc(O)c2)n1
> 79 µM (inactive) | O=C(Oc1coc(CSc2ncccn2)cc1=O)c1ccc(F)cc1
> 79 µM (inactive) | C=CCOc1ccc(CSc2nc(C)cc(C)n2)cc1Cl
> 79 µM (inactive) | C=CCOc1cccc(CSc2ncccn2)c1
> 79 µM (inactive) | CC1(C)CC2(CC(c3ccccc3Cl)c3ccc(O)cc3O2)NC(=O)N1 (configuration not stated)
1.42 µM | Cc1ccccc1NCC(=O)c1ccc(Cl)cc1
inactive | CC1(C)CC2(CC(c3ccc(Cl)cc3)c3ccc(O)cc3O2)NC(=S)N1 (configuration not stated)
> 79 µM (inactive) | CC(=O)Oc1cc2c(cc1Cl)C(c1ccccc1Cl)CC1(CC(C)(C)NC(=S)N1)O2 (configuration not stated)
2.53 µM | Cc1ccc(NCC(=O)c2ccccc2)cc1
inactive | O=C(Oc1coc(CSc2ncccn2)cc1=O)c1ccc(C(F)(F)F)cc1
> 79 µM (inactive) | Cc1ccccc1NCC(O)c1ccc(Cl)cc1 (configuration not stated)
inactive | Cc1ccnc(SCc2cc(=O)c(OC(=O)c3ccc(C(F)(F)F)cc3)co2)n1
inactive | Cc1ccc(N=C2C(=O)Nc3ccccc32)cc1
1.7 µM | COc1ccccc1NCC(=O)c1ccc(Cl)cc1
> 79 µM (inactive) | Cc1ccc(NCC(O)c2ccccc2)cc1 (configuration not stated)
inactive | Cc1c(C(=O)Oc2coc(CSc3ncccn3)cc2=O)cccc1[N+](=O)[O-]
> 79 µM (inactive) | CCN(CC)S(=O)(=O)c1ccc(C(=O)Oc2coc(CSc3ncccn3)cc2=O)cc1
> 79 µM (inactive) | Cc1ccnc(SCc2cc(=O)c(OC(=O)c3ccc(S(=O)(=O)N4CCCC4)cc3)co2)n1
inactive | Cc1cccc(C2CC3(CC(C)(C)NC(=S)N3)Oc3cc(O)cc(C)c32)c1 (configuration not stated)
> 79 µM (inactive) | CC(C)OC(=O)CN1C(=O)C(=O)c2ccccc21
inactive | CC1(C)CC2(CC(c3ccccc3Cl)c3cc(Cl)c(OC(=O)C4CC4)cc3O2)NC(=S)N1 (configuration not stated)
> 79 µM (inactive) | Cc1cccc(C2CC3(CC(C)(C)NC(=O)N3)Oc3cc(O)c(Cl)cc32)c1 (configuration not stated)
inactive | C=CCSC1=NC2(CC(c3ccc(C)cc3)c3c(C)cc(OC(C)=O)cc3O2)CC(C)(C)N1 (configuration not stated)
6.2 µM | O=C(Oc1coc(CSc2ncccn2)cc1=O)c1ccc(Cl)c([N+](=O)[O-])c1

IC50 | SMILES
> 79 µM (inactive) | Cc1ccnc(SCc2cc(=O)c(OCc3ccccc3)co2)n1
> 79 µM (inactive) | Cc1ccnc(SCc2cc(=O)c(OC(=O)c3cccc(Cl)c3)co2)n1
9.84 µM | CSc1cccc(N=C2C(=O)Nc3ccccc32)c1
> 79 µM (inactive) | Cc1ccnc(SCc2cc(=O)c(OC(=O)c3ccc(Cl)cc3)co2)n1
> 79 µM (inactive) | C=CCOc1ccc(CSc2nc(C)cc(C)n2)cc1OC
inactive | Cc1ccnc(SCc2cc(=O)c(OC(=O)c3cc(Cl)ccc3[N+](=O)[O-])co2)n1
> 79 µM (inactive) | Oc1cccc(CSc2ncccn2)c1
> 79 µM (inactive) | C=CCOc1cccc(CSc2nc(C)cc(C)n2)c1
> 79 µM (inactive) | COc1cc(CSc2nc(C)cc(C)n2)ccc1O
> 79 µM (inactive) | C=CCOc1cccc(CSc2nccc(C)n2)c1
> 79 µM (inactive) | Cc1c(O)ccc2c1OC1(CC2c2ccccc2Cl)CC(C)(C)NC(=S)N1 (configuration not stated)
inactive | CC1(C)CC2(CC(c3ccccc3Cl)c3ccc(OC(=O)c4ccccc4)cc3O2)NC(=S)N1 (configuration not stated)
> 79 µM (inactive) | O=C(Oc1coc(CSc2ncccn2)cc1=O)c1ccc(S(=O)(=O)N2CCCCC2)cc1
> 79 µM (inactive) | Cc1ccnc(SCc2cc(=O)c(OC(=O)c3ccc(F)cc3)co2)n1
> 79 µM (inactive) | Cc1ccnc(SCc2cc(=O)c(O)co2)n1
> 79 µM (inactive) | Cc1ccc(C)c(NCC(O)c2ccc(Cl)cc2)c1 (configuration not stated)
> 79 µM (inactive) | C=CCOc1ccc(COc2ccccc2)cc1
> 79 µM (inactive) | O=C(COC(=O)c1cccnc1)c1ccc(Cl)cc1
> 79 µM (inactive) | Cc1cc(C)nc(SCc2cc(=O)c(OC(=O)c3cc(Cl)ccc3[N+](=O)[O-])co2)n1
> 79 µM (inactive) | O=C(O)CN1C(=O)C(=O)c2ccccc21
inactive | O=C(Oc1coc(CSc2ncccn2)cc1=O)c1ccc(Br)cc1
> 79 µM (inactive) | Cc1cc(C)nc(SCc2cccc(O)c2)n1
> 79 µM (inactive) | Cc1ccnc(SCc2cc(=O)c(OC(=O)c3ccccc3C)co2)n1
> 79 µM (inactive) | CCOc1ccc(C(=O)Oc2coc(CSc3ncccn3)cc2=O)cc1
